Assay results published in patent US20140323534A1, “USES OF 3'-DESFERRITHIOCIN ANALOGS” (University of Florida Research Foundation, Inc., priority 2011, published 2014).
Where two headings read alike, the source gives them in different places.

How the values were obtained:
[1] = tested on: acetic acid-induced colitis in rats; test: Prevention of acetic acid-induced colitis in a rat model; type: in vivo, Sprague-Dawley rats; settings: FIG. 1: 20 mg/kg IV 30 minutes before the 4% acetic acid
[2] = LogPapp of DFT analogs; type: physicochemical
[3] = Concentration of DFT analogs in rat plasma and cerebrospinal fluid after oral (PO) and subcutaneous (SC) doses; type: in vivo, Sprague-Dawley rats; settings: rats, monosodium salt; for concentration at 0.5 h / concentration at 1 h / concentration at 2 h / concentration at 4 h / concentration at 8 h: male, Sprague-Dawley, rat; for concentration at 8 h / Concentration in plasma: 8 h
Protocol: The DFT analogs useful in the inventive methods were converted from the free acid form to the monosodium salt form. Water followed by one equivalent of sodium hydroxide was added to the DFT analog as a free acid. The resulting slurry was vortexed or sonicated until the DFT analog went into solution. More water was added, and the solution was vortexed or sonicated again. The formed yellow solution, having a pH about 7, was used as a sample solution in the following examples. It is preferred that a fresh sample solution of the DFT analog is made shortly before the solution is used in an assay.
Adult male Sprague-Dawley rats (450-500 g) were used. The rats were not fasted. A sample solution of a monosodium salt of (S)-3′-(HO)-DADFT-norPE (II-A) or (S)-3′-(HO)-DADFT-PE (III-A) was administered to the rats at an oral or subcutaneous dose of 300 μmol/kg. Concentrations of the DFT analogs in the plasma and cerebrospinal fluid of the rats were measured at 0.5 hour, 1 hour, 2 hours, 4 hours, and 8 hours post administration.

[4] = cerebrospinal fluid, 300 μmol/kg SC, read-out: Concentration in cerebrospinal fluid
[5] = plasma, 300 μmol/kg SC, read-out: Concentration in plasma
[6] = cerebrospinal fluid, 300 μmol/kg PO, read-out: Concentration in cerebrospinal fluid
[7] = plasma, 300 μmol/kg PO, read-out: Concentration in plasma

CC(=O)N(O)CCCCCNC(=O)CCC(=O)N(O)CCCCCNC(=O)CCC(=O)N(O)CCCCCN [DFO, desferrioxamine]
Effect on acetic acid-induced colitis [1]: prevent acetic acid-induced colitis

COCCOCCOc1cccc(C2=N[C@@](C)(C(=O)O)CS2)c1O [II-A]
LogPapp [2]: −0.93
concentration at 0.5 h ([3]; cerebrospinal fluid, 300 μmol/kg SC, 0.5 h, read-out: Concentration in cerebrospinal fluid): 0 µM
concentration at 1 h [3, 4]: 0 µM
concentration at 2 h [3, 4]: 0 µM
concentration at 4 h [3, 4]: 0 µM
concentration at 8 h ([3]; cerebrospinal fluid, 300 μmol/kg SC): 0 nM
concentration at 0.5 h ([3]; plasma, 300 μmol/kg SC, 0.5 h, read-out: Concentration in plasma): 77 ± 10 µM
concentration at 1 h [3, 5]: 66 ± 5 µM
concentration at 2 h [3, 5]: 44 ± 2 µM
concentration at 4 h [3, 5]: 7 ± 1 µM
Concentration in plasma ([3]; 300 μmol/kg SC): trace

COCCOCCOCCOc1cccc(C2=N[C@@](C)(C(=O)O)CS2)c1O [III-A]
LogPapp [2]: −1.22
concentration at 1 h [3, 6]: 0 µM
concentration at 2 h [3, 6]: 0 µM
concentration at 4 h [3, 6]: 0 µM
concentration at 8 h ([3]; cerebrospinal fluid, 300 μmol/kg PO): 0 nM
concentration at 0.5 h ([3]; plasma, 300 μmol/kg PO, 0.5 h, read-out: Concentration in plasma): 62 ± 24 µM
concentration at 1 h [3, 7]: 46 ± 3 µM
concentration at 2 h [3, 7]: 24 ± 5 µM
concentration at 4 h [3, 7]: 13 ± 2 µM
Concentration in cerebrospinal fluid ([3]; 300 μmol/kg PO, 0.5 h): trace
Concentration in plasma ([3]; 300 μmol/kg PO): trace
